# Measured values reported in a melting point compilation (Tetko et al.; mined from patent text by program, amines drawn as free bases though some values may be those of a salt).
row,melting point [°C],Compound
1,146 to 147,COCCOc1cccc2c1C(=O)c1ccccc1C2=O
2,198 to 200,O=C1N(N2CCOCC2)c2ccccc2C1(O)Cc1ccncc1 (stereo not drawn)
3,245 to 246,O=c1nc(-c2ccccn2)sc2cc(Cl)ccc12
4,93.5 to 94,Clc1ccc(Cl)c(COC2COC(c3ccccc3)OC2)c1Cl (stereo not drawn)
5,217 to 219,Cc1ccc(-c2noc3c(Cl)c(OCC(=O)O)ccc23)o1
6,110 to 148,COc1ccc(C(O)CNC(C)CCc2ccccc2)cc1C(N)=O (stereo not drawn)
7,141,COc1ccc(CCc2cccc(C(=O)Nc3ccc(Cl)cc3)c2O)cc1
8,126 to 128,COc1ccc(N2C(=O)C(=C3CCCN3C)c3ccccc32)cc1Cl
9,229 to 230,O=C1Nc2ccccc2CCCC1N1C(=O)c2ccccc2C1=O (stereo not drawn)
10,70 to 72,COc1ccc(C(=O)Cc2c(Cl)cncc2Cl)c2c1CC1(CCCC1)O2
11,168,O=c1ncc(I)cn1COCc1ccc(Cl)cc1
12,115 to 117,CCc1nn(CCNC(=O)c2ccccc2)c(CC)c1Cc1cc(Cl)cc(Cl)c1
13,186 to 188,CCCCOC(=O)NCc1nc(-c2ccc3c(c2)Nc2ccccc2S3)cs1
14,71 to 75,CC(c1oc2ccccc2c(=O)c1-c1cccc(F)c1)n1ccc2c(Cl)ncnc21 (stereo not drawn)
15,238 to 242,NC1CCN(c2ccc3c4c(cccc24)C(=O)N(O)C3=O)C1 (stereo not drawn)
16,160 to 164,CO/C(=C\c1ccc2oc(Cc3nc(-c4ccccc4)oc3C)cc2c1)C(N)=O
17,77 to 97,Cc1cccc(-c2nc(C(C)C)[nH]c2-c2ccc(F)c(-c3cnn(C)c3)c2)n1
18,218 to 220,CCc1cc(O)cc2cc(-c3ccc(O)cc3)oc12
19,234 to 235,Cc1nc(N2CCC(O)C2)c2nc(-c3ccccc3)cc-2[nH]1 (stereo not drawn)
20,148 to 150,CSc1ccc(C(C)C)c(NC(=O)CN2CCN(CCSc3nc4ccccc4o3)CC2)c1C(C)C

row,melting point [°C],Compound
1,174,O=C(NC(=O)N1CCC(Cc2ccccc2)CC1)c1ccc2[nH]c(=O)oc2c1
2,58 to 60,CN1CCN(Cc2ccccc2)C(c2ccccc2)C1 (stereo not drawn)
3,116 to 117,CCCCC1(COC(=O)C(C)(C)C)C(=O)N(c2ccccc2)N(c2ccccc2)C1=O
4,202 to 204,CCOC(=O)c1cccc2c1Cc1c-2[nH]c2ccc(Cl)cc12
5,101 to 102,Clc1ccc(-n2nc3c(c2Br)CCCC3)cc1
6,206,CCOC(=O)c1cn(Cc2c(F)cccc2F)c2sc(-c3ccccc3)c(CBr)c2c1=O
7,152 to 155,COc1ccc(C(=O)OC(=O)NC(CO)Cc2ccc(O)cc2)cc1OC (stereo not drawn)
8,218 to 219,COc1cc(OC)c2c(=O)[nH]c(-c3cc(C)c(OCCn4ccnc4)c(C)c3)nc2c1
9,190,CCn1nnc(Nc2ccc3nc(NCc4ccccc4OC)ccc3c2)n1
10,135 to 138,COc1ccc2c(c1)C(=O)[C@@H](O)[C@](C#Cc1ccccc1)(c1ccccc1)O2 (relative stereo)
11,179 to 182,Cc1ccccc1NC(=O)Nc1ccc(C(=O)N2CCCCc3sccc32)cc1
12,101,COc1cc(-c2nc3ccc(OCCN(C(C)C)C(C)C)cc3n2Cc2ccccc2)cc(OC)c1OC
13,110 to 111,CN1c2ccc(CC(=O)O)cc2CCC1c1ccccc1 (stereo not drawn)
14,246 to 250,COc1cc(/C=C/C(=O)Oc2ccc(NC(C)=O)cc2)ccc1OC(C)=O
15,161 to 163,Cc1cc(C)c2c(n1)N(CCCCl)c1ccccc1N(C)C2=O
16,109 to 111,COc1c(O)cc(C)c(OC(=O)c2ccccc2)c1OC
17,239 to 240,COC(=O)Oc1ccc(CNC=C2C(=O)NC(=O)c3ccc(Br)cc32)cc1OC(=O)OC
18,150 to 152,Cn1cc(CC2CCN(CCN3c4cccc5cccc(c45)S3(=O)=O)CC2)c2cc(F)ccc21
19,260 to 268,CS(=O)(=O)N1CCC(C2c3ccccc3C=Cc3ccccc32)CC1

# The remaining lines, values behind:
row,Compound,melting point [°C]
1,CN1C(O)=C(C(=O)Nc2ccc(Br)cc2)c2cscc2S1(=O)=O,138 to 140
2,Cc1cc2c(cc1-c1cccc(C#CC(=O)O)c1)C(C)(C)CCC2(C)C,180 to 181
3,CCCCCCCCCCCCCCCCOc1ccc(C(=O)O)o1,118 to 119
4,C[C@H]1[C@H](N)CN1C(c1ccccc1)c1ccccc1 (relative stereo),68 to 69
5,CC(C)CSCc1c(-c2ccc(S(C)(=O)=O)cc2)cnn(-c2ccc(F)cc2)c1=O,45 to 60
6,CCN(C(=O)C(F)(F)F)c1cc(C)nc(Oc2c(C)cc(C)cc2C)c1C,110 to 111
7,O=C(O)c1cccc(N2CCN(CCc3ccccc3)CC2)c1F,85.5 to 87.5
8,O=C(CNC(=O)CSC(=O)c1ccccc1)CNC(=O)CSC(=O)c1ccccc1,134 to 140
9,CCc1cc2[nH]c(=O)ccc2c(CC)n1,168 to 169
10,CC(C)(C)OC(=O)N[C@@H](Cc1ccccc1)[C@H]1CO1,126
11,CCCC(=O)Nc1c(C)c(C)c2c(c1C)C(c1ccc(C(C)C)cc1)C(C)(C)O2 (stereo not drawn),120 to 122
12,Clc1ccc(COC(CNc2ccc(Cl)c(Cl)c2)Cn2ccnc2)c(Cl)c1 (stereo not drawn),116 to 117
13,O=C(O)Cc1cccc2c(-c3ccc(Br)cc3)onc12,190 to 192
14,COc1ccc(CN(CCCC(N)=O)Cc2ccc(OC)cc2)cc1,53 to 54
15,CCCc1nn(C)c2c(=O)[nH]c(-c3cc(S(=O)(=O)N4C[C@@H](C)N[C@@H](C)C4)ccc3OCC)nc12,202 to 203
16,O=C(O)COC(=O)C=Cc1ccccc1,116 to 121
17,CC(C)(C)C(=O)C(CCCCOc1ccccc1)n1cncn1 (stereo not drawn),59 to 62
18,CCOC(=O)C1=C(COCc2nnn(CCN3CCN(C(=O)NC)CC3)n2)NC(C)=C(C(=O)OC)C1c1cccc(Cl)c1Cl (stereo not drawn),112 to 114
19,CC(=O)c1cc(-c2ccc(C)cc2)c2c(c1)C(C)(C)CCC2(C)C,102
20,CC(C)c1ccccc1NC(=O)c1ccccc1SSc1ccccc1C(=O)Nc1ccccc1C(C)C,235 to 237
21,COc1ccc(-c2csc(N)n2)cc1,194 to 205
22,O=C(O)c1cnn2c(C(F)F)cc(-c3ccc(C(F)(F)F)c(OCC(F)(F)F)c3)nc12,261

row,Compound,melting point [°C]
1,CCNC(=O)c1ccccc1N(C)C(C)(C)C,45 to 48
2,Cc1nc(CCO)c2n1-c1ccc(Cl)cc1C(c1ccccc1Cl)=NC2,170 to 171
3,CCOC(=O)C1=Cc2cc(Br)ccc2OCC1,86 to 87
4,CN1C(=O)C2C3C=CC(CC3)C2S1=O (stereo not drawn),118 to 120
5,Cc1c(C(=O)O)cnn1-c1ccc(F)c(F)c1,148
6,Cc1cc(C)c2c(c1)C=C(/C=C/C=C/C=C/C(=O)O)C(C)(C)O2,200 to 202
7,N#Cc1nc(Cl)ccc1[N+](=O)[O-],115 to 117
8,Nc1cc(-c2ccncc2)cc2nc(-c3ccco3)nn12,294 to 296
9,C#Cc1cc(Cc2cnc(N)nc2N)cc(OC)c1OC,173 to 175
10,COc1cc2c3c(n(C)c(=O)c2cc1OC)-c1cc2c(cc1C3=CCCCBr)OCO2,197 to 199
11,CCCc1nc2c(N)nc3cc(OC)ccc3c2s1,152 to 154
12,CCCCc1ncc(C=C2C(=O)NC(=O)N2Cc2ccc(Cl)cc2)n1Cc1ccc(C(=O)O)cc1,225 to 227
13,CC(C)(C)OC(=O)NCCNC(=O)c1ncsc1-c1ccccc1,139 to 140
14,Nc1nc(Cl)c2c(n1)OCC2,258 to 263
15,N#Cc1nn(-c2c(Cl)cc(C(F)(F)F)cc2Cl)c(N)c1C1CC1(Br)Br (stereo not drawn),178 to 179
16,O=C(C[C@@H](CCCC1CCCCC1)c1nc(Cn2cncn2)no1)NO,118 to 120
17,CCC1(C)CC(NC(=O)c2cccc([N+](=O)[O-])c2O)CC(C)(C)C1 (stereo not drawn),125 to 128
18,CNc1cc(OC)cc(NCCOC)c1[N+](=O)[O-],84
19,O=C(Cl)N1CCC(Oc2cc(Cl)cc(Cl)c2)C1 (stereo not drawn),105 to 107
20,O=C(Cl)CCCC(=O)Cl,60.6 to 61.4
21,Fc1cncc(-n2ccc(Cl)n2)c1,77 to 82
22,CCOC(=O)C1CCC(=O)C(Sc2ccc(C)cc2)C1 (stereo not drawn),87 to 89

row,Compound,melting point [°C]
1,CCOC(=O)CNC(=O)Nc1ccc(C#N)cc1,140 to 144
2,N#Cc1c(N)nc2ccccc2c1NCc1ccco1,206
3,Cc1ccc(NC(=O)C(C)C)s1,95 to 97
4,NS(=O)(=O)c1ccc(CNC(=O)c2cccnc2Oc2cccc(-n3cnnn3)c2)cc1,72 to 74
5,COC(=O)c1sccc1NS(=O)(=O)c1nc2nc(C3CC3)cc(C)n2n1,133 to 134
6,COCc1c[nH]c2c([N+](=O)[O-])cccc2c1=O,> 250
7,Oc1nsnc1-c1ccc(Cl)cc1,240 to 242
8,COc1ccc(NN=C(Sc2cccc(OC)c2)C(C)=O)cc1,97 to 99
9,Cc1ccc2c([nH]c(=O)n3c(=O)[nH]nc23)c1C,380 to 382
10,CC(=O)N(O)CCOc1ccc(-c2ccc(C#N)cc2)cc1,174 to 175
11,Cn1c(=O)sc2cc(N)ccc21,188 to 190
12,Cc1nc2nc(SCc3ccccc3)nn2c(C)c1C,134 to 135
13,CCN(Cc1cccnc1)C(=S)NC,122 to 123
14,COC(=O)C=Cc1ccc(C(C)(C)C)cc1,35
15,CC(SC1COC(c2ccc3cc(C(=O)Nc4ccc(C#N)cc4)ccc3c2)OC1)C(O)(Cn1cncn1)c1ccc(F)cc1F (stereo not drawn),114
16,C1CCN(c2nc(N3CCCC3)c3nc(N4CCCCC4)nc(N4CCCC4)c3n2)CC1,254 to 256
17,Cc1ccc2[nH]c(=O)cc(CCCl)c2c1,215 to 216
18,O=C(C1CCCCC1)N1CC(=S)N2CCCc3ccccc3C2C1 (stereo not drawn),150 to 151
19,CCOC(=O)CCN(c1ccccc1)S(=O)(=O)c1ccc2c(c1)nc(CNc1ccc(C#N)cc1)n2C,188 to 191
20,CC(C)Oc1ccc(-n2c(C(=O)NCCNC(=O)OC(C)(C)C)c(Cl)c3cc(Oc4ccc(C(F)(F)F)cn4)ccc32)cc1,184 to 185
